Source: ChEMBL document CHEMBL1201862, “PubChem BioAssay data set” (2004)
The source made the active and inactive calls. Rule as the data show it: actives have a measured IC50 and inactives only a lower limit.

Molecular target: Envelope glycoprotein gp160 (Human immunodeficiency virus 1, UniProt Q6QLK5)
Experiment: inhibitors of HIV fusion peptide binding, primary screen, biochemical, uHTS, fluorescence dequenching (AID 1986)

Envelope glycoprotein gp160, sequence (Q6QLK5 whole entry, the tested form may be a part): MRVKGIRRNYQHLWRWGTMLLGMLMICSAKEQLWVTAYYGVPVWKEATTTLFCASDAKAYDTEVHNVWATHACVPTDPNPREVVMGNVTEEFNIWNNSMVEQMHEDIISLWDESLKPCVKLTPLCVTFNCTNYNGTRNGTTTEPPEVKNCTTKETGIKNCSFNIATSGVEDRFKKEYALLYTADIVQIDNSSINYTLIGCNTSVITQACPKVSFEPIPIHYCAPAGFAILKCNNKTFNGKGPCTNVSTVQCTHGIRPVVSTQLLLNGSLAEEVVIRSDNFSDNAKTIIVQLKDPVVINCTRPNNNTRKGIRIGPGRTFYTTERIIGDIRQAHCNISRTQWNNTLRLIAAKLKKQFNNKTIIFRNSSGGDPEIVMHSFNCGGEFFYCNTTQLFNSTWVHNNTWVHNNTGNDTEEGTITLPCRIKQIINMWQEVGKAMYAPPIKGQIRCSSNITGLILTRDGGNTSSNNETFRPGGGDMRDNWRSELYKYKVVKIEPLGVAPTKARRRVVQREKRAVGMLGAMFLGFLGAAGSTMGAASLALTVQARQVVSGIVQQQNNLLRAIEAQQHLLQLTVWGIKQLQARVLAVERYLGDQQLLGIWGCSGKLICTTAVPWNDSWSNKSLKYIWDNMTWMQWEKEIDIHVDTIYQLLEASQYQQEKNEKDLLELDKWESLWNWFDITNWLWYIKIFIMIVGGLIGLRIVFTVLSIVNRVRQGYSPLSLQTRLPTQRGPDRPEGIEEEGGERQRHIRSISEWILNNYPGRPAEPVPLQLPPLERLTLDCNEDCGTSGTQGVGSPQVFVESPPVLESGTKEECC

Row | Structure (SMILES) | IC50
1 | O=C(Nc1ccccc1Cc1ccccc1)c1ccccc1NS(=O)(=O)c1ccc(Cl)s1 | 17 µM (active)
2 | O=C(O)c1ccccc1N=Nc1c(O)[nH]c2ccc([N+](=O)[O-])cc12 | 23.3 µM (active)
3 | CCS(=O)(=O)C1=NN2C(=N)/C(=C\c3ccc(OS(=O)(=O)c4ccccc4)c(OC)c3)C(=O)N=C2S1 | 17.8 µM (active)
4 | COc1ccc(-c2nn(-c3ccccc3)cc2/C=C2/SC(=S)N(CCCC(=O)O)C2=O)c(C)c1 | 20.2 µM (active)
5 | CCc1ccc(NC2=NC(=O)/C(=C/c3cc(Br)c(OCC(=O)O)c(OC)c3)S2)cc1 | 14.6 µM (active)
